Results from patent US5721247A, “Isothiourea derivatives useful in therapy” (priority 1994, dated 1998).

Columns and labels:
[1] = target: T1, endothelial nitric oxide synthase (Homo sapiens, UniProt P29474); assay: Screen for endothelial nitric oxide synthase inhibiting activity (Screen C); format: biochemical
T1 construct: Enzyme may be isolated from human umbilical vein endothelial cells (HUVECs); host or cells: HUVEC (CHAPS-solubilised particulate fraction)

[2] = target: T2, neuronal nitric oxide synthase (Rattus norvegicus, UniProt P29476); assay: Screen for neuronal nitric oxide synthase inhibiting activity (Screen A); format: biochemical
T2 construct: Enzyme was isolated from rat hippocampus or cerebellum; from tissue; host or cells: cerebellum or hippocampus of male Sprague-Dawley rat (20,000 g supernatant)

[3] = target: T3, macrophage nitric oxide synthase (Mus musculus, UniProt P29477); assay: Screen for macrophage nitric oxide synthase inhibiting activity (Screen B); format: biochemical, murine; details: ratio of IC50 in Screen B (macrophage isoform) to IC50 in Screen A (neuronal isoform)
T3 construct: Nitric oxide synthase is produced by cells in response to interferon-γ (IFNγ) and lipopolysaccharide (LPS); endogenous in cells; host or cells: J774A-1 murine macrophage cell line, induced with LPS and IFN-gamma (cell lysate)
Excerpt: The enzyme nitric oxide synthase has a number of isoforms and compounds of formula I, and pharmaceutically acceptable salts thereof, may be screened for nitric oxide synthase inhibiting activity by procedures based on those of Bredt and Snyder in Proc. Natl. Acad. Sci. (1990) 87, 682-685 and Forstermann et. al., Eur. J. Pharm. (1992) 225, 161-165 as follows. Nitric oxide synthase converts ^3 H-L-arginine to ^3 H-L-citrulline which can be separated by cation exchange chromatography and quantified by scintillation counting.
(B) Screen for macrophage nitric oxide synthase inhibiting activity
Enzyme is prepared, after induction, from the cultured murine macrophage cell line J774A-1 (obtained from laboratories of the Imperial Cancer Research Fund). J774A-1 cells are cultured in Dulbecco's Modified Eagles Medium (DMEM) supplemented with 10% foetal bovine serum, 4 mM L-glutamine and antibiotics (100 units/ml penicillin G, 100 μg/ml streptomycin & 0.25 μg/ml amphotericin B). Cells are routinely grown in […] flasks containing 35 ml medium kept at 37° C. and in a humidified atmosphere containing 5% CO2.
Nitric oxide synthase is produced by cells in response to interferon-γ (IFNγ) and lipopolysaccharide (LPS). […]
Labelled L-citrulline is separated from labelled L-arginine using Dowex AG-50W. […] After allowing the samples to dry the L-citrulline is quantified by scintillation counting. […]

T2 sequence (P29476 whole entry): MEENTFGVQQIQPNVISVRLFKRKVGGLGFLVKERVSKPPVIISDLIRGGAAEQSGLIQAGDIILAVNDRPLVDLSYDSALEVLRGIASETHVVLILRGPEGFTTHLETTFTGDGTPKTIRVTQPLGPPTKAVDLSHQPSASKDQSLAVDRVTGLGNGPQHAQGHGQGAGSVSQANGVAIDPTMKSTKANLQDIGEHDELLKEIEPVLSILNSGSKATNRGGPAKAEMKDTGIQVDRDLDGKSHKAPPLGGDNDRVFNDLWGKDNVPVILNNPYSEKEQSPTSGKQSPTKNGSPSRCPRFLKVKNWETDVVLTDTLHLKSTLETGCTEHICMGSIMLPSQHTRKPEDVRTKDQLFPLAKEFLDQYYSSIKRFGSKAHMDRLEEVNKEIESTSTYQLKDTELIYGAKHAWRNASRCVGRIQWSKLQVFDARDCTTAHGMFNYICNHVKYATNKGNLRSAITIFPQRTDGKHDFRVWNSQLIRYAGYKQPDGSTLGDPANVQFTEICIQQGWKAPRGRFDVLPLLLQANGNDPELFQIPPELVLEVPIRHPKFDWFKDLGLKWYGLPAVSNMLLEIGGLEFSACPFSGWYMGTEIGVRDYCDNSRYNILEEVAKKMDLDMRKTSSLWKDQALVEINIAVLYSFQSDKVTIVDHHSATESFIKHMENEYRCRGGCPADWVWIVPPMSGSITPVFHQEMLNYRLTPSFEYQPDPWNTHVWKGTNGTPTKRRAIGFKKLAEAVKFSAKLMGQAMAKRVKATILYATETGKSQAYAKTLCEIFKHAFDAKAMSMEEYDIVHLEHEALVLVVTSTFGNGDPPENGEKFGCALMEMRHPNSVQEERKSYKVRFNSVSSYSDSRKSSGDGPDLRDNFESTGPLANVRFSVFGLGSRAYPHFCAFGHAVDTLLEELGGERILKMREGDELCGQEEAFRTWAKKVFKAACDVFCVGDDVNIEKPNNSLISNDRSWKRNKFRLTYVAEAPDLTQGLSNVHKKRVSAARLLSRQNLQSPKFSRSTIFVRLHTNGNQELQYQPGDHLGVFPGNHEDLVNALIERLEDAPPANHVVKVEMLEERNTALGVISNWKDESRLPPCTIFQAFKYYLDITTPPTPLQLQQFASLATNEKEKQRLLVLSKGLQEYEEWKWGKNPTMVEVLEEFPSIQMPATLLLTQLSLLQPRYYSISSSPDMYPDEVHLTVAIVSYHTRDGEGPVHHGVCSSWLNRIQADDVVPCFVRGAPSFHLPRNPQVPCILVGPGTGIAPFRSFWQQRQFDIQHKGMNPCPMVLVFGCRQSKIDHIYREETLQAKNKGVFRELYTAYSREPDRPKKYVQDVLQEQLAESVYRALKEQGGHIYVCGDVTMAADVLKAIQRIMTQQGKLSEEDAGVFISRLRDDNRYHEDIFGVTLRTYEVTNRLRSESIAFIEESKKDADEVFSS
T1 sequence (P29474 2-1203): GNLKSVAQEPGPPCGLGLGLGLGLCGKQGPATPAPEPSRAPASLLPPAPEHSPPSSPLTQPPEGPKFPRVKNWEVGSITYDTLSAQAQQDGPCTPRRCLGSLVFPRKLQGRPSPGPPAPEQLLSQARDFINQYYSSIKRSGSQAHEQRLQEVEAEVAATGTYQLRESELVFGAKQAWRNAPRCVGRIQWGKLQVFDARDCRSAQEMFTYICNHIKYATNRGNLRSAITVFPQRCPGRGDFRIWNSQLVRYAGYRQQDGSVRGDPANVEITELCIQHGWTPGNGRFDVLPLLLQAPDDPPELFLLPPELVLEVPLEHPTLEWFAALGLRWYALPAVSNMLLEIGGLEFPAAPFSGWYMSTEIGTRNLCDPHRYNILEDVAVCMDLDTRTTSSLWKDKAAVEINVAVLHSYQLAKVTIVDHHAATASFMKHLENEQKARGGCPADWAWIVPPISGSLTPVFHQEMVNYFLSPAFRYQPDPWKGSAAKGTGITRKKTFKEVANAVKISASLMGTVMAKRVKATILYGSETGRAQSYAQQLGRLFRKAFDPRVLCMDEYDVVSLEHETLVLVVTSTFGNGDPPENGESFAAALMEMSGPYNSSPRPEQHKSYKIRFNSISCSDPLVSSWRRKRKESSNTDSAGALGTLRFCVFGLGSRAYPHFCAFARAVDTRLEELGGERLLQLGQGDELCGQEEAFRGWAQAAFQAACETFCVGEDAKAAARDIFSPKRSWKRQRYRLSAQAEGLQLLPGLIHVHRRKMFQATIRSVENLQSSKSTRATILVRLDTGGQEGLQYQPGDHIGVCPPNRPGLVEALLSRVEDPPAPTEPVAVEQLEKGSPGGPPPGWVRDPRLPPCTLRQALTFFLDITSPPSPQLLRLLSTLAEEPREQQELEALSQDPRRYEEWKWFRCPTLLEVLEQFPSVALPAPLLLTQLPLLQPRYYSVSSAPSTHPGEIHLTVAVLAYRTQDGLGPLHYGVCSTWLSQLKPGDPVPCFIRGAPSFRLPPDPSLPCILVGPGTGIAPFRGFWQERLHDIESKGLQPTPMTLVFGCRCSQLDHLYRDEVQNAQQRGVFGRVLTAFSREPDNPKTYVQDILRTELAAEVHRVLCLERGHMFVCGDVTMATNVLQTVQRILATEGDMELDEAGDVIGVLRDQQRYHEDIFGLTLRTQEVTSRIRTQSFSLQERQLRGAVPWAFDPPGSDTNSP

IC50 values more than 10 times that obtained in Screen A ([1]; ratio of IC50 in Screen C (endothelial isoform) to IC50 in Screen A (neuronal isoform)) | IC50 ([2]; Screen A, neuronal isoform, rat hippocampus or cerebellum supernatant) [µM] | IC50 values more than 10 times that obtained in Screen A [3] | inhibition at 1 µM ([1]; reference standard at a concentration of 1 μM, HUVEC enzyme) [%] | inhibition at 1 µM ([2]; reference standard at a concentration of 1 μM) [%] | SMILES
more than 10 times | < 10 | more than 10 times | – | – | CCSC(=N)Nc1ccc(CCN(C)Cc2ccccc2)cc1 [Example 1, N-(4-(2-((Phenylmethyl)(methyl)amino)ethyl)phenyl)carbamimidothioic acid ethyl ester]
– | – | – | 70 to 90 | 60 | N=C(NCCC[C@H](N)C(=O)O)N[N+](=O)[O-] [N-nitro-L-arginine, reference compound]
